Results published in US20100047776A1, “Cell-based screening assays for compounds that regulate the expresion of a tumor marker dj-1” (Caritas St. Elizabeth Medical Center of Boston Inc., priority 2005, published 2010).

Assays:
[1] = tested on: 0DJ-Luc (luciferase gene lacking the DJ-1 promoter sequence); test: Luciferase reporter assay in control cell lines expressing 0DJ-Luc; format: cell-based, human; conditions: H2O2 treatment
Description: (§1) To develop a cell-based assay system where one can identify agents that transcriptionally modulate DJ-1, a plasmid vector (−1000DJ-Luc) was made that expressed a luciferase reporter gene directed by the human DJ-1 promoter containing 1000 base pairs upstream and 65 base pairs downstream sequences (−1000 to +65) of the transcription initiation site (FIG. 1). A […] sequence containing +46 to +65 of the DJ-1 gene was fused to the luciferase gene to generate the control plasmid (0DJLuc). A neomycin resistance gene was inserted into the vectors as a selection marker.
(§2) Using the vector described in Example 1, human SH-SY5Y neuroblastoma cells were transfected with either −1000DJLuc or 0DJLuc; stably transfected clones were subsequently identified. A plasmid encoding β-galactosidase gene was co-transfected to serve as an internal control for luciferase expression.
(§3) To confirm the stable expression of the reporter genes and to evaluate these cells as devices for drug discovery, stably transfected SH-SY5Y cells were treated with increasing doses of H2O2, which has been reported to upregulate DJ-1. […] Luciferase and β-galactosidase activities were then determined. […]
(§4) C. […] Luciferase and β-galactosidase activities were determined using assay kits following manufacturer's protocol (Promega).

human DJ-1 promoter = test: DJ-1 promoter luciferase reporter assay in SH-SY5Y cells stably expressing −1000DJ-Luc; format: cell-based; conditions: SH-SY5Y cells stably expressing −1000DJ-Luc and CMV-β-galactosidase; increasing doses of H2O2 for 24 hours; untreated sample designated as 100; FIG. 2
Description: as §1, §2, §3, §4

OO [H2O2]
Luciferase activity in control cell lines expressing 0DJ-Luc [1]: not affected
Luciferase activity normalized to β-galactosidase activity (human DJ-1 promoter activation) (human DJ-1 promoter): activated the human DJ-1 promoter in a dose dependent manner
